Tested on: patients with moderate to severe tardive dyskinesia
Assay: ARM-TD randomized, double-blind, placebo-controlled study
Format: in vivo, human
From the text: An additional clinical study, Aim to Reduce Movements in […] Dyskinesia (ARM-TD) was designed and conducted to evaluate the efficacy of SD-809 (deutetrabenazine) in the treatment of moderate to severe tardive dyskinesia. […] Subjects were screened for inclusion in the study as follows. Inclusion criteria included: between 18 and 75 years of age, inclusive; history of using a dopamine receptor antagonist for at least 3 months (or 1 month in subjects 60 years of age and older); clinical diagnosis of TD, and has had symptoms for at least 3 months prior to Screening; […] Dosing. […] Drug was then administered at that dose for another six weeks for a total treatment of 12 weeks, followed by a 1-week washout period. […] Dose suspensions of up to one week were permitted if the subject experienced a clinically significant adverse event. Study Objectives and Endpoints. The objectives of the study was to evaluate the efficacy of SD-809 in reducing the severity of abnormal involuntary movements associated with tardive dyskinesia and the safety and tolerability of titration and maintenance therapy with deutetrabenazine in subjects with drug-induced tardive dyskinesia. […] Baseline AIMS score is defined for each subject as the Day 0 assessment. The AIMS is composed of 12 clinician-administered and scored items. Items 1-10 are rated on a 5-point, anchored scale and consist of the following: • Items 1-4 assess orofacial movements; • Items 5-7 deal with extremity and truncal dyskinesia; • Items 8-10 deal with global severity as judged by the examiner, and the patient's awareness of the movements and the distress associated with them; and • Items 11-12 are yes/no questions concerning problems associated with teeth and/or dentures, as such problems can be mistaken for dyskinesia. […] As with previous studies, […] treatment success may be defined as Much or Very Much Improved on a 7-point Likert Scale, ranging from very much worse to very much improved at Week 12. The CDQ-24 is a disease-specific quality of life questionnaire developed for use in patients with craniocervical dystonia, including both cervical dystonia (CD) and blepharospasm (BPS). The CDQ-24 was selected for use in the present study because it includes domains which are relevant not only to CD and BPS, but to TD, such as stigma, emotional well-being, pain, activities of daily living, and social/family life. For the present study, the CDQ-24 has been modified such that the questions focus more directly on the impact of TD (as opposed to CD/BPS) on quality of life. […] Measurements and Statistics. Digital video recordings of AIMS assessments made at all clinic visits (at Screening, Baseline, Weeks 2, 4, 6, 9, and 12) were rated by pairs of central raters who were experts in movement disorders and were blinded to treatment arm, sequence of video, and the investigator AIMS score. Analysis was carried out using a linear mixed model for repeated measurements (MMRM) with the change in the AIMS score as the dependent variable. The model included fixed effects for treatment group, time point (five levels: Weeks 2, 4, 6, 9, and 12), the treatment group by time point interaction, and the randomization stratification variable. The unstructured covariance model was used and the primary analysis compared the deutetrabenazine and placebo groups at Week 12 using a two-sided test at the 5% level of significance.

[1] = n = 58, count (percent), listed as DTBZ

## [2H]C([2H])([2H])Oc1cc2c(cc1OC([2H])([2H])[2H])C1CC(=O)C(CC(C)C)CN1CC2 (stereo not drawn) [deutetrabenazine, (RR, SS)-1,3,4,6,7,11b-hexahydro-9,10-di(methoxy-d3)-3-(2-methylpropyl)-2H-benzo[a]quinolizin-2-one]
DTBZ vs Placebo
  CGIC Treatment Success, Treatment Difference: 7.90%
  Change from baseline mCDQ-24, Treatment Difference: −2.7
  PGIC Treatment Success, Treatment Difference: 13.00%
DTBZ vs Placebo, p-value 0.0188
  AIMS Change (LS Mean), Treatment Difference: −1.4
N = 56
  Change from baseline mCDQ-24: −11.1
Week 12, N = 56
  CGIC Treatment Success (%): 48.20%
  PGIC Treatment Success N (%): 42.90%
Baseline to Week 12, N = 56
  AIMS Change (LS Mean): −3
Baseline to end of therapy
  improvement on the AIMS score: 3.0 points
In vivo
  Depression/depressed mood reported: one patient
  suicidal ideation reported: none
N = 58, count (percent)
  Any TEAEs (Treatment-Emergent Adverse Events): 41 (70.7%)
  TEAE Anxiety: 3 (5.2%)
  TEAE Chest pain: 1 (1.7%)
  TEAE Constipation: 2 (3.4%)
  TEAE Diarrhea: 3 (5.2%)
  TEAE Dizziness: 2 (3.4%)
  TEAE Dry mouth: 2 (3.4%)
  TEAE Fatigue: 4 (6.9%)
  TEAE Headache: 4 (6.9%)
  TEAE Nasopharyngitis: 2 (3.4%)
  TEAE Nausea: 2 (3.4%)
  TEAE Pneumonia: 1 (1.7%)
  TEAE Upper respiratory tract infection: 2 (3.4%)
  TEAE Vomiting: 1 (1.7%)
[1]
  Serious TEAEs: 4 (6.9%)
  TEAE Akathisia: 3 (5.2%)
  TEAE Insomnia: 4 (6.9%)
  TEAE Somnolence/sedation: 9 (15.5%)
  TEAEs Resulting in Study Withdrawal: 1 (1.7%)

Source: patent publication US12016858B2, “Methods for the treatment of abnormal involuntary movement disorders” (AUSPEX PHARMACEUTICALS, INC., priority 2015, dated 2024)
